In PubChem BioAssay AID248 (DTP/NCI, 2004):
Values joined by “and” are separate entries in the source; they are usually repeats but may differ in a detail not shown here. Equal entries are not always repeated. Toxic doses and inconclusive results are not listed. Cut-off read from the data, not from the text of the source: active = T/C of 150% or more; inactive = T/C below 125%.

System: L1210 leukemia ip in BDF1 mice, survival T/C
Assay: NCI In Vivo Anticancer Drug Screen. Data for tumor model L1210 Leukemia (intraperitoneal) in B6D2F1 (BDF1) mice
Conditions: endpoint: mean survival time, higher = longer survival
Procedure, shortened: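 Survival endpoint. Drug-treated group vs vehicle group, expressed as T divided by C. Tumor passaged by transplantation.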

[1] = dose: 100.0 mg/kg/injection, schedule: Q01DX Z (ip), vehicle: methylcellulose (MC)
[2] = dose: 100.0 mg/kg/injection, schedule: Q04DX002 (ip), vehicle: Klucel (hydroxypropylcellulose) (HPC)
[3] = dose: 200.0 mg/kg/injection, schedule: Q04DX002 (ip), vehicle: Klucel (hydroxypropylcellulose) (HPC)
[4] = dose: 400.0 mg/kg/injection, schedule: Q04DX002 (ip), vehicle: Klucel (hydroxypropylcellulose) (HPC)
[5] = dose: 50.0 mg/kg/injection, schedule: Q01DX009 (ip), vehicle: saline with Tween-80
[6] = dose: 100.0 mg/kg/injection, schedule: Q01DX009 (ip), vehicle: saline with Tween-80
[7] = dose: 200.0 mg/kg/injection, schedule: Q01DX009 (ip), vehicle: saline with Tween-80
[8] = dose: 100.0 mg/kg/injection, schedule: Q04DX003 (ip), vehicle: saline with Tween-80
[9] = dose: 400.0 mg/kg/injection, schedule: Q01DX009 (ip), vehicle: saline with Tween-80
[10] = dose: 100.0 mg/kg/injection, schedule: Q01DX009 (ip), vehicle: Klucel (hydroxypropylcellulose) (HPC)
[11] = dose: 200.0 mg/kg/injection, schedule: Q01DX009 (ip), vehicle: Klucel (hydroxypropylcellulose) (HPC)
[12] = dose: 400.0 mg/kg/injection, schedule: Q01DX009 (ip), vehicle: Klucel (hydroxypropylcellulose) (HPC)
[13] = dose: 100.0 mg/kg/injection, schedule: Q04DX003 (ip), vehicle: Klucel (hydroxypropylcellulose) (HPC)
[14] = dose: 200.0 mg/kg/injection, schedule: Q04DX003 (ip), vehicle: Klucel (hydroxypropylcellulose) (HPC)
[15] = dose: 400.0 mg/kg/injection, schedule: Q04DX003 (ip), vehicle: Klucel (hydroxypropylcellulose) (HPC)

Measured: T/C

Cc1cccc(Nc2nc(N)nc(N)c2N=O)c1
inactive: [1] 102 % of control | [2] 101 % of control | dose: 200.0 mg/kg/injection, schedule: Q01DX Z (ip), vehicle: methylcellulose (MC) 97 % of control | [3] 94 % of control | [4] 101 % of control

O=C1c2ccccc2C(=O)N1CCOCCOCCN1C(=O)c2ccccc2C1=O
inactive: dose: 25.0 mg/kg/injection, schedule: Q01DX009 (ip), vehicle: saline with Tween-80 108 % of control | [5] 96 % of control and 92 % of control | [6] 88 % of control and 92 % of control | [2] 98 % of control | [7] 98 % of control | [3] 98 % of control | [4] 98 % of control

c1ccc(Nc2n[n+](-c3ccccc3)no2)cc1
inactive: [6] 106 % of control | [8] 108 % of control | [7] 101 % of control | dose: 200.0 mg/kg/injection, schedule: Q04DX003 (ip), vehicle: saline with Tween-80 100 % of control | [9] 108 % of control | dose: 400.0 mg/kg/injection, schedule: Q04DX003 (ip), vehicle: saline with Tween-80 110 % of control

COc1ccc(C)cc1NC(=O)Nc1ccco1
inactive: [6] 97 % of control | [7] 92 % of control | [9] 90 % of control

CCN1CCC(CCOC)(CN2c3ccccc3Sc3ccc(Cl)cc32)C1 (configuration not stated)
inactive: dose: 100.0 mg/kg/injection, schedule: Q04DX003 (ip), vehicle: saline 89 % of control

Cc1cc(C)c(NC(=O)Nc2ccc(C(Cl)(Cl)Cl)cc2)c(C)c1
inactive: [10] 95 % of control | [11] 98 % of control | [12] 94 % of control

O=C(NCCNC(=O)c1cccnc1)c1ccncc1
inactive: dose: 100.0 mg/kg/injection, schedule: Q04DX003 (ip), vehicle: acetone 95 % of control | dose: 200.0 mg/kg/injection, schedule: Q04DX003 (ip), vehicle: acetone 105 % of control | dose: 400.0 mg/kg/injection, schedule: Q04DX003 (ip), vehicle: acetone 106 % of control

Cc1ccc(O)c(N=O)c1.[Cu+2]
inactive: dose: 50.0 mg/kg/injection, schedule: Q01DX001 (ip), vehicle: saline 97 % of control | dose: 100.0 mg/kg/injection, schedule: Q01DX001 (ip), vehicle: saline 103 % of control | dose: 200.0 mg/kg/injection, schedule: Q01DX001 (ip), vehicle: saline 103 % of control

CCOC(=O)C(C(=O)OCC)C1c2ccccc2-c2ccccc21
inactive: [13] 102 % of control | [14] 96 % of control | [15] 100 % of control

O=C1CCCC[CH]1[Hg][Cl] (configuration not stated)
inactive: dose: 1.25 mg/kg/injection, schedule: Q01DX001 (ip), vehicle: saline 95 % of control | dose: 2.5 mg/kg/injection, schedule: Q01DX001 (ip), vehicle: saline 96 % of control | dose: 5.0 mg/kg/injection, schedule: Q01DX001 (ip), vehicle: saline 87 % of control

OC(CC(CC(O)(C(F)(F)F)C(F)(F)F)=NNc1ccccc1)(C(F)(F)F)C(F)(F)F
inactive: dose: 25.0 mg/kg/injection, schedule: Q04DX003 (ip), vehicle: saline with Tween-80 101 % of control | dose: 50.0 mg/kg/injection, schedule: Q04DX003 (ip), vehicle: saline with Tween-80 101 % of control | [8] 93 % of control and 90 % of control

O=[N+]([O-])c1ccc(S(=O)(=O)CCCl)cc1
inactive: dose: 50.0 mg/kg/injection, schedule: Q01DX009 (ip), vehicle: Klucel (hydroxypropylcellulose) (HPC) 100 % of control | [10] 91 % of control

CC(=O)OCC1OC(OC(C)=O)C(NC(=O)N(C)c2ccccc2)C(OC(C)=O)C1OC(C)=O (configuration not stated)
inactive: [13] 105 % of control | [14] 105 % of control | [15] 105 % of control

C1CSP(SCCSP2SCCS2)S1
inactive: dose: 25.0 mg/kg/injection, schedule: Q01DX009 (ip), vehicle: carboxymethylcellulose (CMC) 87 % of control and 88 % of control | dose: 25.0 mg/kg/injection, schedule: Q04DX002 (ip), vehicle: carboxymethylcellulose (CMC) 95 % of control and 90 % of control | dose: 50.0 mg/kg/injection, schedule: Q01DX009 (ip), vehicle: carboxymethylcellulose (CMC) 95 % of control | dose: 50.0 mg/kg/injection, schedule: Q04DX002 (ip), vehicle: carboxymethylcellulose (CMC) 97 % of control and 90 % of control | dose: 100.0 mg/kg/injection, schedule: Q01DX009 (ip), vehicle: carboxymethylcellulose (CMC) 95 % of control and 91 % of control | dose: 200.0 mg/kg/injection, schedule: Q04DX002 (ip), vehicle: carboxymethylcellulose (CMC) 94 % of control

C=CCn1c(SCc2ccccc2)nccc1=O
inactive: [2] 111 % of control | [3] 122 % of control | [4] 108 % of control

BrC1CC2C3CCC(C3)C2C1Br (configuration not stated)
inactive: dose: 50.0 mg/kg/injection, schedule: Q01DX001 (ip), vehicle: carboxymethylcellulose (CMC) 91 % of control | dose: 100.0 mg/kg/injection, schedule: Q01DX001 (ip), vehicle: carboxymethylcellulose (CMC) 93 % of control | dose: 200.0 mg/kg/injection, schedule: Q01DX001 (ip), vehicle: carboxymethylcellulose (CMC) 93 % of control | dose: 400.0 mg/kg/injection, schedule: Q01DX001 (ip), vehicle: carboxymethylcellulose (CMC) 93 % of control

Nc1nc(N)c(N)c(N=O)n1
inactive: [1] 86 % of control

COc1ccc(OC)c(CCl)c1
inactive: dose: 75.0 mg/kg/injection, schedule: Q01DX009 (ip), vehicle: Klucel (hydroxypropylcellulose) (HPC) 97 % of control | dose: 150.0 mg/kg/injection, schedule: Q01DX009 (ip), vehicle: Klucel (hydroxypropylcellulose) (HPC) 103 % of control | dose: 300.0 mg/kg/injection, schedule: Q01DX009 (ip), vehicle: Klucel (hydroxypropylcellulose) (HPC) 91 % of control

Cc1nc(N)[nH]c(=O)c1CCCNC(=O)c1ccccc1
inactive: dose: 100.0 mg/kg/injection, schedule: Q01DX001 (ip), vehicle: Klucel (hydroxypropylcellulose) (HPC) 94 % of control | dose: 200.0 mg/kg/injection, schedule: Q01DX001 (ip), vehicle: Klucel (hydroxypropylcellulose) (HPC) 91 % of control | dose: 400.0 mg/kg/injection, schedule: Q01DX001 (ip), vehicle: Klucel (hydroxypropylcellulose) (HPC) 87 % of control

C=C1C(=O)OC2CC(C)C3CC(OCCCl)OC(OCCCl)C3(C)CC12 (configuration not stated)
inactive: dose: 1.25 mg/kg/injection, schedule: Q01DX005 (ip), vehicle: other 104 % of control | dose: 2.5 mg/kg/injection, schedule: Q01DX005 (ip), vehicle: other 106 % of control | dose: 5.0 mg/kg/injection, schedule: Q01DX005 (ip), vehicle: other 101 % of control | dose: 10.0 mg/kg/injection, schedule: Q01DX005 (ip), vehicle: other 101 % of control | dose: 20.0 mg/kg/injection, schedule: Q01DX005 (ip), vehicle: other 113 % of control

O=C(O)C1C(c2ccccc2)=C1c1ccc(Br)cc1 (configuration not stated)
inactive: [10] 100 % of control | [13] 93 % of control | [11] 118 % of control | [14] 102 % of control | [12] 101 % of control | [15] 88 % of control

O=C(CCC1c2ccccc2C(=O)c2ccccc21)c1ccccc1
inactive: [5] 108 % of control | [6] 97 % of control | [7] 101 % of control

CN(C)C=Nc1ccc(C#N)cc1
inactive: dose: 100.0 mg/kg/injection, schedule: Q04DX002 (ip), vehicle: saline 98 % of control | dose: 200.0 mg/kg/injection, schedule: Q04DX002 (ip), vehicle: saline 91 % of control | dose: 400.0 mg/kg/injection, schedule: Q04DX002 (ip), vehicle: saline 91 % of control
